Source: the supplement of paper PMC10307832

How the values were obtained:
Experiment in all cases: relative viability (nuclei count vs DMSO), 5 days (fraction); higher = more cells survive
Tanzisertib + AZD7762 = compound: O[C@H]1CC[C@H](Nc2ncc3nc(Nc4c(F)cc(F)cc4F)n([C@H]4CCOC4)c3n2)CC1 [Tanzisertib] + NC(=O)Nc1cc(-c2cccc(F)c2)sc1C(=O)N[C@H]1CCCNC1 [AZD7762] (partner 0.2 µM)
Procedure, shortened: (§1)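 Relative viability was taken as the ratio of nuclei in treated wells to nuclei in vehicle wells. Lung cancer cell lines in 1536-well plates received compounds by pin tool one day after seeding, either one drug alone or a fixed anchor-drug dose plus five library-drug doses (not always all listed) in √10 steps. Nuclei were counted on 4× images after 5 days of treatment, and values are medians of duplicate plates.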

[1] = compound: C[C@@H](N)c1ccc(C(=O)Nc2ccnc3[nH]ccc23)cc1 + Cc1cc(Nc2cc(N3CCN(C)CC3)nc(Sc3ccc(NC(=O)C4CC4)cc3)n2)n[nH]1 [Tozasertib] (partner 0.1 µM)
Procedure, shortened: as §1

Tanzisertib + Navitoclax = compound: O[C@H]1CC[C@H](Nc2ncc3nc(Nc4c(F)cc(F)cc4F)n([C@H]4CCOC4)c3n2)CC1 [Tanzisertib] + CC1(C)CCC(c2ccc(Cl)cc2)=C(CN2CCN(c3ccc(C(=O)NS(=O)(=O)c4ccc(N[C@H](CCN5CCOCC5)CSc5ccccc5)c(S(=O)(=O)C(F)(F)F)c4)cc3)CC2)C1 [Navitoclax] (partner 0.5 µM)
Procedure, shortened: as §1

[2] = compound: C1CNCCC1C2=CC(=NN2)C3=CC=NC=C3 + CC(=O)c1c(C)c2cnc(Nc3ccc(N4CCNCC4)cn3)nc2n(C2CCCC2)c1=O [Palbociclib] (partner 0.5 µM)
Procedure, shortened: as §1

With RERF-LC-KJ the relative viability (Tanzisertib + AZD7762; first compound 0.08 µM) was 0.987, the relative viability (Tanzisertib + AZD7762; first compound 0.253 µM) was 1.02 and the relative viability (Tanzisertib + AZD7762; first compound 0.8 µM) was 0.904. The relative viability (Tanzisertib + AZD7762; first compound 2.53 µM) was 0.93, the relative viability (Tanzisertib + AZD7762; first compound 8 µM) was 0.571 and the relative viability ([1]; first compound 0.04 µM) was 0.643. For the same cell line, the relative viability ([1]; first compound 0.1265 µM) was 0.453, the relative viability ([1]; first compound 0.4 µM) was 0.525 and the relative viability ([1]; first compound 1.265 µM) was 0.513. The relative viability ([1]; first compound 4 µM) was 0.422, the relative viability (Tanzisertib + Navitoclax; first compound 0.08 µM) was 0.918 and the relative viability (Tanzisertib + Navitoclax; first compound 0.253 µM) was 0.789. For the same cell line, the relative viability (Tanzisertib + Navitoclax; first compound 0.8 µM) was 0.791, the relative viability (Tanzisertib + Navitoclax; first compound 2.53 µM) was 0.818 and the relative viability (Tanzisertib + Navitoclax; first compound 8 µM) was 0.882. The relative viability ([2]; first compound 0.08 µM) was 0.989, the relative viability ([2]; first compound 0.8 µM) was 1.14 and the relative viability ([2]; first compound 2.53 µM) was 1.11. For the same cell line, the relative viability ([2]; first compound 8 µM) was 1.06.
